What was measured:
Test in all cases: radiometric filter-binding kinase assay
[1] = target: EPHB4 (human) (UniProt P54760)
[2] = target: PHKG1 (human) (UniProt Q16816)
[3] = target: MKNK2 (human) (UniProt Q9HBH9)
[4] = target: MAP3K1 (human) (UniProt Q13233)
[5] = target: MAP2K1 (human) (UniProt Q02750)
[6] = target: NEK2 (human) (UniProt P51955)
[7] = target: IGF1R (human) (UniProt P08069)
[8] = tested on: AKT2 (human), P31751 [S474D]
[9] = target: STK3 (human) (UniProt Q13188)
[10] = target: CAMKK2 (human) (UniProt Q96RR4)
[11] = target: CHEK1 (human) (UniProt O14757)
Chain of CHEK1 (human) (O14757 whole entry, looked up): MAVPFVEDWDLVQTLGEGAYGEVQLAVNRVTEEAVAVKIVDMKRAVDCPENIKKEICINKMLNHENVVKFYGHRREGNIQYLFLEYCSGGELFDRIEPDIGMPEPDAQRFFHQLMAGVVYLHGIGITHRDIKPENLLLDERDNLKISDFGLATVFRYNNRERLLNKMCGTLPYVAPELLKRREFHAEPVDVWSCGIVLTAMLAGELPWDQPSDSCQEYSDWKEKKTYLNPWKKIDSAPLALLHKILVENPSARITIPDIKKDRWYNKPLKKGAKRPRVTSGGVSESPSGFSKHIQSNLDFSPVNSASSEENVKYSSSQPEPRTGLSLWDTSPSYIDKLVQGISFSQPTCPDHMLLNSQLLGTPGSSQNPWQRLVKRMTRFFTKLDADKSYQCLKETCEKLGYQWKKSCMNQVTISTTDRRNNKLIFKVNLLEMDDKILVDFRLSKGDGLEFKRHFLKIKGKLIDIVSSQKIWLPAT

[12] = target: CHEK2 (human) (UniProt O96017)
Chain of CHEK2 (human) (O96017 whole entry, looked up): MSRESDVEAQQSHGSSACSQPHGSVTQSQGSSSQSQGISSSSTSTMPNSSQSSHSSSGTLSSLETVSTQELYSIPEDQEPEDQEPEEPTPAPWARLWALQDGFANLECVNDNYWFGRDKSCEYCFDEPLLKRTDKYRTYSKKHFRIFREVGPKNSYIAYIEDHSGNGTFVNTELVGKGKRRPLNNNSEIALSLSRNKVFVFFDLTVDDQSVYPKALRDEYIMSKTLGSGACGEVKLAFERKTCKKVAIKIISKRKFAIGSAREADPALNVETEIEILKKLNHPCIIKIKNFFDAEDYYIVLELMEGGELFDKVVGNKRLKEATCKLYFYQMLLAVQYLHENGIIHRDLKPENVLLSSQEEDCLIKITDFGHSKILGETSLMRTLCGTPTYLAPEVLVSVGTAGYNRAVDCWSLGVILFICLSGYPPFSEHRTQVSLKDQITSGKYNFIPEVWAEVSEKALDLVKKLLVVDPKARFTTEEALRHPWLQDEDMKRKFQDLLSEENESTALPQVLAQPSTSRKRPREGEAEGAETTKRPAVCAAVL

[13] = target: IKBKB (human) (UniProt O14920)
[14] = target: STK11 CAB39 STRADA (human) (UniProt Q9Y376+Q7RTN6+Q15831)
[15] = target: MAPKAPK2 (human) (UniProt P49137)
[16] = target: MAPK15 (human) (UniProt Q8TD08)
[17] = target: PRKCA (human) (UniProt P17252)
[18] = target: MAPK3 (human) (UniProt P27361)
[19] = target: GCK (human) (UniProt Q12851)
[20] = target: MINK1 (human) (UniProt Q8N4C8)
[21] = target: RPS6KA1 KD1 KD2 (human) (UniProt Q15418)
[22] = target: YES1 (human) (UniProt P07947)
[23] = target: AURKB (human) (UniProt Q96GD4)
[24] = target: MAPK1 (human) (UniProt P28482)
[25] = target: NTRK1 (human) (UniProt P04629)
[26] = target: MARK2 (human) (UniProt Q7KZI7)
[27] = target: SRC (human) (UniProt P12931)
Chain of SRC (human) (P12931 whole entry, looked up): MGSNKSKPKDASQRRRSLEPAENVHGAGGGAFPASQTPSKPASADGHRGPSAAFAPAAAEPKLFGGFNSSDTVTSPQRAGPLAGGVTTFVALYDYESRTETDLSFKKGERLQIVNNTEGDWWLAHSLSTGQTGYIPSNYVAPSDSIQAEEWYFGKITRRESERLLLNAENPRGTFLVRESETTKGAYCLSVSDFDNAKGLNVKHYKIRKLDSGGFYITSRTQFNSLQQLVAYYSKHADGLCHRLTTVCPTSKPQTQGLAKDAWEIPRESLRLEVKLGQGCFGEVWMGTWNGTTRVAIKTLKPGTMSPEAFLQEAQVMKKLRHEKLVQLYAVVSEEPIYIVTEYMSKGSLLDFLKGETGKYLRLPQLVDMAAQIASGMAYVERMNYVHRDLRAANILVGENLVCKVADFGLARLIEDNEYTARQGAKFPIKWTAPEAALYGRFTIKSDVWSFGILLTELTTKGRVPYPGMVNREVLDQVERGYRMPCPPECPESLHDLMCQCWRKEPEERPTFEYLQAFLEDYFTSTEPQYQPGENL

[28] = target: MAPK10 (human) (UniProt P53779)
[29] = target: MAP3K5 (human) (UniProt Q99683)
[30] = target: PIM2 (human) (UniProt Q9P1W9)
[31] = target: MKNK1 (human) (UniProt Q9BUB5)
[32] = tested on: PRKAA1 or PRKAA2 (rat); details: accession and sequence are those of the human protein
[33] = target: PRKACA (human) (UniProt P17612)
[34] = target: MAPK9 (human) (UniProt P45984)
[35] = target: PKN2 (human) (UniProt Q16513)
Chain of PKN2 (human) (Q16513 whole entry, looked up): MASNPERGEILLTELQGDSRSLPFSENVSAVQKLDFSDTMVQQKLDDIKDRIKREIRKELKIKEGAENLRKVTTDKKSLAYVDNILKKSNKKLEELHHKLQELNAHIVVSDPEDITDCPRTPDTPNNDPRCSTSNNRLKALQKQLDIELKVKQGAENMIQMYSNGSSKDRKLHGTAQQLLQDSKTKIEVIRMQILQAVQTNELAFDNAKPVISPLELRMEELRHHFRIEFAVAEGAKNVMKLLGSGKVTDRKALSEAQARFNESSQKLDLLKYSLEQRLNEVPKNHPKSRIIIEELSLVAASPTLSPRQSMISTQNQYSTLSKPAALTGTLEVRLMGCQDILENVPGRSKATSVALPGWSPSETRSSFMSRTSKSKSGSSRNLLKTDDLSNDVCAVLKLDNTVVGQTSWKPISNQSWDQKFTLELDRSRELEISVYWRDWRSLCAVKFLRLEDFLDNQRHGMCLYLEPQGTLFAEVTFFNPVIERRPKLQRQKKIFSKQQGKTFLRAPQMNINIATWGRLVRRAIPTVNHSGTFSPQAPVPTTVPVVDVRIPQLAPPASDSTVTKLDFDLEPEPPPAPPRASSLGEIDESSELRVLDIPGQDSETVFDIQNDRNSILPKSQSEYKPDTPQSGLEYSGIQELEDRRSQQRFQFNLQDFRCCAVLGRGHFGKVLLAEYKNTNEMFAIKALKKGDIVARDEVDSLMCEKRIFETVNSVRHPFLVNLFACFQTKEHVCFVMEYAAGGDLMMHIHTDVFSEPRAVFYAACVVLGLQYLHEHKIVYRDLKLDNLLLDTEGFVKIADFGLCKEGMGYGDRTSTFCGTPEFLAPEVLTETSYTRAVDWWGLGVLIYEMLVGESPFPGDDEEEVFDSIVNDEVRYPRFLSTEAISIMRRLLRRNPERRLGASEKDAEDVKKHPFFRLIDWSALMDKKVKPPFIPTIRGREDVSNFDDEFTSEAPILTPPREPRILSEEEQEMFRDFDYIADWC

Chain of IGF1R (human) (P08069 whole entry, looked up): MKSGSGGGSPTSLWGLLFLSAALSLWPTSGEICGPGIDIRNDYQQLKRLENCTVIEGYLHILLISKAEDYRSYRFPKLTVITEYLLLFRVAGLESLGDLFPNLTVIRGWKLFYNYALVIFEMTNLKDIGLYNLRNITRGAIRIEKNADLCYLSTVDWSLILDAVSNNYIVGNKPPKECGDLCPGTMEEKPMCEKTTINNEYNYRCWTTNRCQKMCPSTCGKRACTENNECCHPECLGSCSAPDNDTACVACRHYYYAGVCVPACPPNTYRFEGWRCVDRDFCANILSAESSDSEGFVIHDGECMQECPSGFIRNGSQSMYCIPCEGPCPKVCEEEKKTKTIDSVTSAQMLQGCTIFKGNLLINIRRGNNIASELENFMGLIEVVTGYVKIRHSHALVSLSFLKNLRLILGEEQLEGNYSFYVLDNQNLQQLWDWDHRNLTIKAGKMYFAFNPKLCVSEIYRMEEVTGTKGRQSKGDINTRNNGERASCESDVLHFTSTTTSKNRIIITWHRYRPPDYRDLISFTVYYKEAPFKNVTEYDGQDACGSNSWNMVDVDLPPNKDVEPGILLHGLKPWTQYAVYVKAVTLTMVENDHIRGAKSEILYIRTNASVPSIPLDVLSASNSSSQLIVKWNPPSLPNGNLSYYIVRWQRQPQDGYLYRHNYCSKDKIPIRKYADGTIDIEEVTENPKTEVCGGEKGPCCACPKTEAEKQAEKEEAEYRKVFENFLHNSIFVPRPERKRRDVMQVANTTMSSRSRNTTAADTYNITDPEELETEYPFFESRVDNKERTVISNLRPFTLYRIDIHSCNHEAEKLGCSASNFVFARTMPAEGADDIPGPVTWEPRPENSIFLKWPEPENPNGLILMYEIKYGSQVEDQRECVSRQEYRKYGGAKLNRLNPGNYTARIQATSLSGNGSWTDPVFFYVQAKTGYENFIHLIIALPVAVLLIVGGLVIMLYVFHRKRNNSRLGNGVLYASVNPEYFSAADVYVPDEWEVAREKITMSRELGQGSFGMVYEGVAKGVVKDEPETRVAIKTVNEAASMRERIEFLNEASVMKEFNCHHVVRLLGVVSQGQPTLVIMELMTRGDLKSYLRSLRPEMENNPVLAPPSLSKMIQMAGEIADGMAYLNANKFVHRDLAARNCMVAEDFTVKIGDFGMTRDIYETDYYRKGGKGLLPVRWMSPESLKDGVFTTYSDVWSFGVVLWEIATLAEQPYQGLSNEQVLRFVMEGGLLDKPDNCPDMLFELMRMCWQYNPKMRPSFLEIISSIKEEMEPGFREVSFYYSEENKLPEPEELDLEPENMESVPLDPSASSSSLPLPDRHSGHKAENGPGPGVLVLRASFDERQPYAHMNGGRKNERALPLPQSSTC
Chain of MKNK2 (human) (Q9HBH9 whole entry, looked up): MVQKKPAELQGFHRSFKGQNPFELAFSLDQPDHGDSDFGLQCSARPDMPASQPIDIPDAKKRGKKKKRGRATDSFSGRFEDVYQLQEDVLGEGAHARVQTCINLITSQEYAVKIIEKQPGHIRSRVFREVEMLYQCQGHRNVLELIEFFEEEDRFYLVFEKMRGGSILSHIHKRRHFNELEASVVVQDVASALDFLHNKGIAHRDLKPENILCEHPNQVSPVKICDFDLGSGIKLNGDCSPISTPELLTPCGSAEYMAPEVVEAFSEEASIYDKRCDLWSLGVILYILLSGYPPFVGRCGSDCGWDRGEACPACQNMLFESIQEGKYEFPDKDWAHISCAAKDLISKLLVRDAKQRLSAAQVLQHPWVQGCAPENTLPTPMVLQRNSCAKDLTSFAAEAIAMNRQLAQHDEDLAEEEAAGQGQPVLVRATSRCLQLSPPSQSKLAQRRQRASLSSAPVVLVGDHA
Chain of NEK2 (human) (P51955 whole entry, looked up): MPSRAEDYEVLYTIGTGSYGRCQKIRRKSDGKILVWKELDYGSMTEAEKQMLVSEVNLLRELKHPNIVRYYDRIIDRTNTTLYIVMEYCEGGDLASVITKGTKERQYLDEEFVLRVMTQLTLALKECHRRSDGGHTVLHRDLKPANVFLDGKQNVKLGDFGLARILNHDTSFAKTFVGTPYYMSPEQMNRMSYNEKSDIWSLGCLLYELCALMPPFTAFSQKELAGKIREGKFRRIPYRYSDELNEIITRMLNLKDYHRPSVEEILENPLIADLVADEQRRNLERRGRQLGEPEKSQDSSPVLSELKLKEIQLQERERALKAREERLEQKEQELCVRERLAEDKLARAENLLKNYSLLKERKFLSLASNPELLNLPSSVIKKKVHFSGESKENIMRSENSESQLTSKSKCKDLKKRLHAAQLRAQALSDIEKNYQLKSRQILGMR

O=C(Nc1ccccc1-c1cn2c(CN3CCNCC3)csc2n1)c1cnc2ccccc2n1
residual activity ([1]; compound 1.0 µM): 96%
residual activity ([1]; compound 10.0 µM): 103%
residual activity ([2]; compound 0.1 µM): 96%
residual activity ([2]; compound 1.0 µM): 53%
residual activity ([2]; compound 10.0 µM): 14%
residual activity ([3]; compound 0.1 µM): 90%
residual activity ([3]; compound 1.0 µM): 92%
residual activity ([3]; compound 10.0 µM): 96%
residual activity ([4]; compound 1.0 µM): 92%
residual activity ([4]; compound 10.0 µM): 45%
residual activity ([5]; compound 0.1 µM): 91%
residual activity ([5]; compound 1.0 µM): 95%
residual activity ([5]; compound 10.0 µM): 87%
residual activity ([6]; compound 0.1 µM): 91%
residual activity ([6]; compound 1.0 µM): 95%
residual activity ([6]; compound 10.0 µM): 87%
residual activity ([7]; compound 0.1 µM): 92%
residual activity ([7]; compound 1.0 µM): 96%
residual activity ([7]; compound 10.0 µM): 25%
residual activity ([8]; compound 0.1 µM): 75%
residual activity ([8]; compound 1.0 µM): 70%
residual activity ([8]; compound 10.0 µM): 61%
residual activity ([9]; compound 0.1 µM): 85%
residual activity ([9]; compound 1.0 µM): 96%
residual activity ([9]; compound 10.0 µM): 92%
residual activity ([10]; compound 0.1 µM): 92%
residual activity ([10]; compound 1.0 µM): 83%
residual activity ([10]; compound 10.0 µM): 44%
residual activity ([11]; compound 0.1 µM): 86%
residual activity ([11]; compound 1.0 µM): 98%
residual activity ([11]; compound 10.0 µM): 96%
residual activity ([12]; compound 0.1 µM): 85%
residual activity ([12]; compound 1.0 µM): 93%
residual activity ([12]; compound 10.0 µM): 54%
residual activity ([13]; compound 0.1 µM): 84%
residual activity ([13]; compound 1.0 µM): 93%
residual activity ([13]; compound 10.0 µM): 84%
residual activity ([14]; compound 1.0 µM): 93%
residual activity ([14]; compound 10.0 µM): 97%
residual activity ([15]; compound 0.1 µM): 90%
residual activity ([15]; compound 1.0 µM): 92%
residual activity ([15]; compound 10.0 µM): 59%
residual activity ([16]; compound 0.1 µM): 81%
residual activity ([16]; compound 1.0 µM): 96%
residual activity ([16]; compound 10.0 µM): 86%
residual activity ([17]; compound 0.1 µM): 114%
residual activity ([17]; compound 1.0 µM): 106%
residual activity ([17]; compound 10.0 µM): 80%
residual activity ([18]; compound 0.1 µM): 88%
residual activity ([18]; compound 1.0 µM): 105%
residual activity ([18]; compound 10.0 µM): 117%
residual activity ([19]; compound 1.0 µM): 102%
residual activity ([19]; compound 10.0 µM): 99%
residual activity ([20]; compound 1.0 µM): 91%
residual activity ([20]; compound 10.0 µM): 55%
residual activity ([21]; compound 0.1 µM): 88%
residual activity ([21]; compound 1.0 µM): 66%
residual activity ([21]; compound 10.0 µM): 34%
residual activity ([22]; compound 0.1 µM): 69%
residual activity ([22]; compound 1.0 µM): 82%
residual activity ([22]; compound 10.0 µM): 80%
residual activity ([23]; compound 1.0 µM): 93%
residual activity ([23]; compound 10.0 µM): 90%
residual activity ([24]; compound 0.1 µM): 93%
residual activity ([24]; compound 1.0 µM): 103%
residual activity ([24]; compound 10.0 µM): 97%
residual activity ([25]; compound 1.0 µM): 47%
residual activity ([25]; compound 10.0 µM): 30%
residual activity ([26]; compound 1.0 µM): 106%
residual activity ([26]; compound 10.0 µM): 83%
residual activity ([27]; compound 0.1 µM): 85%
residual activity ([27]; compound 1.0 µM): 93%
residual activity ([27]; compound 10.0 µM): 121%
residual activity ([28]; compound 1.0 µM): 105%
residual activity ([28]; compound 10.0 µM): 89%
residual activity ([29]; compound 1.0 µM): 98%
residual activity ([29]; compound 10.0 µM): 100%
residual activity ([30]; compound 0.1 µM): 90%
residual activity ([30]; compound 1.0 µM): 95%
residual activity ([30]; compound 10.0 µM): 78%
residual activity ([31]; compound 0.1 µM): 92%
residual activity ([31]; compound 1.0 µM): 100%
residual activity ([31]; compound 10.0 µM): 97%
residual activity ([32]; compound 0.1 µM): 83%
residual activity ([32]; compound 1.0 µM): 88%
residual activity ([32]; compound 10.0 µM): 60%
residual activity ([33]; compound 0.1 µM): 80%
residual activity ([33]; compound 1.0 µM): 106%
residual activity ([33]; compound 10.0 µM): 84%
residual activity ([34]; compound 0.1 µM): 101%
residual activity ([34]; compound 1.0 µM): 93%
residual activity ([34]; compound 10.0 µM): 87%
residual activity ([35]; compound 0.1 µM): 90%
residual activity ([35]; compound 1.0 µM): 103%
residual activity ([35]; compound 10.0 µM): 104%

From the kinase profiling compilation of Christmann-Franck et al. (2016)
